Data on 43 compounds can be found in US20250136592A1, “C-LINKED INHIBITORS OF ENL/AF9 YEATS” (Bridge Medicines, priority 2021, published 2025).

Where two headings read alike, the source gives them in different places.

In assay [1] the target is ENL YEATS domain (Homo sapiens (Human), UniProt Q03111). Kind of assay: TR-FRET ENL Screening Assay. To be noted: 6xHIS ENL YEATS domain binding to H3K9cr peptide. As for the experimental part:
Compounds of the invention were tested in a TR-FRET ENL Screening Assay. TR-FRET (time-resolved fluorescence energy transfer) can be used to quantify ENL YEATS domain binding to a crotonylated histone peptide (H3K9cr, aa1-20). Streptavidin-Europium (Eu) chelate binds the biotinylated peptide, while Anti-6×HIS ULight™ binds 6×HIS-ENL. When Eu chelate is excited at 320 nm, fluorescence resonance energy transfer (FRET) occurs if Eu and ULight are made proximal by ENL binding to the acyl-peptide.
Low control (LC) wells received 5 μL of assay buffer instead of ENL protein. […] The response at each compound concentration minus the LC value was converted to percent inhibition of the vehicle control group response (HC-LC).
On the technique in general: TR-FRET usually uses a lanthanide donor and a delayed reading to cut background.

Assay [2] deals with MV4:11 (MLL-AF4 MLL) cells. The experiment in a line: Cell viability assay (CellTiter-Glo), 12 days. To be noted: MV4;11 cells, 12 day, read-out: CTG_MV4, 11 12 DAY_EC50. It is filed as cell-based. The procedure: The assays were conducted over 12 days and the cells being split on days 4 and 8. […] Blank wells received cell culture medium. Plates were incubated for 4 days at 37° C. with 5% CO2. On days 4 and day 8 the cells were split and incubated for a further 4 days whilst an aliquot of cells were taken for the CTG readout. For the cell splitting, 270 nL of compounds or DMSO was added to a new 96 well cell culture plate to which 90 μL of medium plus 10 μL of cells from the original assay plate (after mixing) or 100 μL of medium (Blank wells) was added. This was repeated on day 8.
Cell viability was assessed using the CellTiter-Glo® homogeneous luminescent assay kit (Promega, G9243), according to the manufacturer's instructions. This quantifies ATP, which indicates the presence of metabolically active cells. […] The resulting data were analyzed as follows:
where vehicle are cells treated with 0.3% DMSO, Blank is culture medium. IC50 determinations were calculated by fitting the curve using XLfit (v5.3.1.3): Y=Bottom+(Top−Bottom)/(1+10^((LogIC50−X)*HillSlope)).
(In ATP-based viability assays light output follows the ATP content of the culture.)

Sequence of ENL YEATS domain (Q03111 1-138): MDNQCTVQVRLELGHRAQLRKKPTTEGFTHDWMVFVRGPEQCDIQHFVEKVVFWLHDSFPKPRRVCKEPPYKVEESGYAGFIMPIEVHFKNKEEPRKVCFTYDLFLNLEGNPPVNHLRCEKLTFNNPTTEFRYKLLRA

In general, IC50 refers to the midpoint of a concentration-inhibition curve. Read a high IC50 as weaker potency in that assay. With `CN1CCC[C@@H]1c1nc2cc(NC(=O)c3cc4cnn(-c5ccncc5)c4cc3F)ccc2[nH]1` [Example 7, (R)-6-fluoro-N-(2-(1-methylpyrrolidin-2-yl)-1H-benzo[d]imidazol-5-yl)-1-(pyridin-4-yl)-1H-indazole-5-carboxamide], the IC50 in assay [1] amounted to 142 nM. Further, the EC50 in assay [2] (Homo sapiens, 288 h) came to 101 nM.
In assay [1], `CN1CCC[C@@H]1c1cc2cnc(NC(=O)c3ccn4c(C5COC5)ncc4c3)cc2[nH]1` [Example 6, (R)—N-(2-(1-methylpyrrolidin-2-yl)-1H-pyrrolo[3,2-c]pyridin-6-yl)-3-(oxetan-3-yl) imidazo[1,5-a]pyridine-7-carboxamide] gave an IC50 of 106 nM. In assay [2], the EC50 worked out at 33 nM.
Consider `CN1CCC[C@@H]1c1cc2cnc(NC(=O)c3ccc4cnn(C)c4c3)cc2[nH]1` [Example 38], for which, in assay [1], the IC50 is 94 nM. For the same compound, the EC50 in assay [2] (Homo sapiens, 288 h) was 87 nM.
As to `Cc1noc2c(F)c(C(=O)Nc3ccc4nc([C@H]5CCCN5C)[nH]c4c3)ccc12` [Example 18], the concentration for half-maximal inhibition (IC50) in assay [1] is 125 nM.
For the compound `CN1C(=O)Cc2ccc(C(=O)Nc3cc4[nH]c([C@H]5CCCCN5C)cc4cn3)cc21` [Example 94], the IC50 in assay [1] was determined as 220 nM. Besides, the EC50 in assay [2] (Homo sapiens, 288 h) amounted to 368 nM.
On the same counts, the results for `Cc1ccc2cc(C(=O)Nc3cc4[nH]c([C@H]5CCCN5C)cc4cn3)ccc2n1` [Example 66] are 29 nM and 1630 nM.
Take `Cc1nc2cc(C(=O)Nc3cc4[nH]c([C@H]5CCCN5C)cc4cn3)ccc2[nH]1` [Example 61]: in assay [1], the IC50 was 90 nM. The EC50 in assay [2] (Homo sapiens, 288 h) amounted to 2860 nM.
The compound `Cc1n[nH]c2ccc(C(=O)Nc3cc4[nH]c([C@H]5CCCN5C)cc4cn3)cc12` [Example 31] returned an IC50 in assay [1] of 57 nM. The EC50 in assay [2] (Homo sapiens, 288 h) worked out at 91 nM.
With `Cc1[nH]c2ccc(C(=O)Nc3cc4[nH]c([C@H]5CCCN5C)cc4cn3)cc2c1C` [Example 58], in assay [1], the IC50 stood at 208 nM. Also, in assay [2] (Homo sapiens, 288 h), the EC50 is 8580 nM.
The compound `CN1CCCC[C@@H]1c1cc2cnc(NC(=O)c3ccc4c(c3)N(C)S(=O)(=O)C4)cc2[nH]1` [Example 96] registered an IC50 in assay [1] of 250 nM. Moreover, the EC50 in assay [2] (Homo sapiens, 288 h) was determined as 319 nM.
With `Cc1ncn2ccc(C(=O)Nc3cc4[nH]c([C@H]5CCCCN5C)cc4cn3)cc12` [Example 92], the IC50 in assay [1] stood at 93 nM. The EC50 in assay [2] (Homo sapiens, 288 h) was found to be 100 nM.
For the compound `CC(O)c1ncc2cc(C(=O)Nc3cc4[nH]c([C@H]5CCCN5C)cc4cn3)ccn12` (stereo partly drawn) [Example 4, 3-(1-hydroxyethyl)-N-(2-((R)-1-methylpyrrolidin-2-yl)-1H-pyrrolo[3,2-c]pyridin-6-yl) imidazo[1,5-a]pyridine-7-carboxamide], the IC50 in assay [1] was 203 nM. For the same compound, the EC50 in assay [2] worked out at 4370 nM.
On to `CN1CCC[C@@H]1c1cc2cnc(NC(=O)c3ccc4c(N)nccc4c3)cc2[nH]1` [Example 41], for which the IC50 in assay [1] came out at 14 nM. Also, the EC50 in assay [2] (Homo sapiens, 288 h) was 72 nM.
As for `CN1CCCC1c1nc2ccc(NC(=O)c3ccc4ncccc4c3)cc2[nH]1` (stereo not drawn) [Example 25], in assay [1], the IC50 stood at 181 nM.
In assay [1], `CN1CCC[C@@H]1c1cc2ncc(NC(=O)c3ccc4c(F)n[nH]c4c3F)cc2[nH]1` [Example 74] displayed an IC50 of 79 nM. In assay [2] (Homo sapiens, 288 h), the EC50 was determined as 1420 nM.
With `CN1CCCC[C@@H]1c1cc2cnc(NC(=O)c3ccc4ncn(C)c(=O)c4c3)cc2[nH]1` [Example 102, (R)-3-methyl-N-(2-(1-methylpiperidin-2-yl)-1H-pyrrolo[3,2-c]pyridin-6-yl)-4-oxo-3,4-dihydroquinazoline-6-carboxamide], the IC50 in assay [1] is 200 nM. In addition, the EC50 in assay [2] (Homo sapiens, 288 h) worked out at 289 nM.
In assay [1], `CN1CCC[C@@H]1c1cc2cnc(NC(=O)c3ccc4ncn(C)c4c3)cc2[nH]1` [Example 63] displayed an IC50 of 95 nM. The EC50 in assay [2] (Homo sapiens, 288 h) was determined as 7020 nM.
Turning to `CN1CCC[C@@H]1c1cc2cnc(NC(=O)c3ccc4c(c3)[nH]c(=O)n4C)cc2[nH]1` [Example 48], the IC50 in assay [1] was determined as 30 nM. That is a double-digit nanomolar value.
Take `CN1CCC[C@@H]1c1cc2cnc(NC(=O)c3ccc4c(cnn4C)c3)cc2[nH]1` [Example 49]: in assay [1], the IC50 was 26 nM. The EC50 in assay [2] (Homo sapiens, 288 h) amounted to 1440 nM.
Consider `CN1CCC[C@@H]1c1nc2cc(NC(=O)c3ccc4c(cnn4-c4cccnc4)c3)ccc2[nH]1` [Example 22], for which the IC50 in assay [1] came out at 131 nM.
In the case of `CN1CCC[C@@H]1c1cc2cnc(NC(=O)c3ccc4nnn(C)c4c3)cc2[nH]1` [Example 72], the IC50 in assay [1] is 120 nM. In addition, the EC50 in assay [2] (Homo sapiens, 288 h) came to 2570 nM.
In the case of `Cc1nn(C)c2cc(C(=O)Nc3cc4[nH]c([C@H]5CCCN5C)cc4cn3)ccc12` [Example 40], the IC50 in assay [1] turned out to be 34 nM. Also, in assay [2] (Homo sapiens, 288 h), the EC50 came to 88 nM.
On the same counts, the results for `CC(C)c1ncc2cc(C(=O)Nc3cc4[nH]c([C@H]5CCCN5C)cc4cn3)ccn12` [Example 67] are 75 nM and 38 nM.
In assay [1], `CN1CCCCC1c1nc2cc(NC(=O)c3ccc4c(cnn4C)c3)ccc2[nH]1` (stereo not drawn) [Example 9, 1-methyl-N-[2-(1-methylpiperidin-2-yl)-1H-1,3-benzodiazol-5-yl]indazole-5-carboxamide] came in with an IC50 of 200 nM.
Take `Cc1noc2cc(C(=O)Nc3ccc4nc(C5CCCN5C)[nH]c4c3)ccc12` (stereo not drawn) [Example 12]: in assay [1], the IC50 was 78 nM. In addition, the EC50 in assay [2] (Homo sapiens, 288 h) is 201 nM.
`CN1CCC[C@@H]1c1cc2cnc(NC(=O)c3ccc4c(C(F)(F)F)ncn4c3)cc2[nH]1` [Example 37] showed an IC50 in assay [1] of 55 nM. Moreover, in assay [2] (Homo sapiens, 288 h), the EC50 was 47 nM.
Compound `CN1CCC[C@@H]1c1cc2ncc(NC(=O)c3ccc4cnn(C5CC5)c4c3)cc2[nH]1` [Example 82] registered a concentration for half-maximal inhibition (IC50) in assay [1] of 102 nM. Further, the EC50 in assay [2] (Homo sapiens, 288 h) was determined as 409 nM.
For `COc1nccc2cc(C(=O)Nc3cc4[nH]c([C@H]5CCCN5C)cc4cn3)ccc12` [Example 52], in assay [1], the IC50 came to 25 nM.
Still for that read-out and setting: the value for `Cc1noc2ccc(C(=O)Nc3ccc4nc([C@H]5CCCN5C)[nH]c4c3)cc12` [Example 11] was 465 nM.
As to `CN1CCC[C@@H]1c1cc2cnc(NC(=O)c3ccc4c(cnn4-c4ccncc4)c3)cc2[nH]1` [Example 84], the 50% inhibitory concentration (IC50) in assay [1] is 31 nM. Also, the EC50 in assay [2] (Homo sapiens, 288 h) is 134 nM.
`CN1CCC[C@@H]1c1cc2cnc(NC(=O)c3ccc4c(C5CC5)nn(C)c4c3)cc2[nH]1` [Example 29] showed an IC50 in assay [1] of 21 nM. Moreover, the EC50 in assay [2] (Homo sapiens, 288 h) stood at 1120 nM.
In assay [1], `CN1CCC[C@@H]1c1cc2cnc(NC(=O)c3ccc4c(ccn4C)c3)cc2[nH]1` [Example 60] returned an IC50 of 148 nM. In assay [2] (Homo sapiens, 288 h), the EC50 amounted to 298 nM.
`CN1CCC[C@@H]1c1nc2cc(NC(=O)c3ccc4c(cnn4-c4ccccn4)c3)ccc2[nH]1` [Example 21] displayed an IC50 in assay [1] of 200 nM.
`Cc1cnn2cc(C(=O)Nc3cc4[nH]c([C@H]5CCCN5C)cc4cn3)ccc12` [Example 34] showed an IC50 in assay [1] of 48 nM. For the same compound, in assay [2] (Homo sapiens, 288 h), the EC50 came to 570 nM.
As for `Cc1ncn2ccc(C(=O)Nc3cc4[nH]c([C@H]5CCCN5C)cc4cn3)cc12` [Example 70], in assay [1], the IC50 amounted to 110 nM. In addition, the EC50 in assay [2] (Homo sapiens, 288 h) was found to be 189 nM.
On the same counts, the results for `CN1CCC[C@@H]1c1nc2cc(NC(=O)c3ccc4c(c3)[nH]c(=O)n4C)ccc2[nH]1` [Example 26] are 145 nM and 374 nM.
On to `CN1CCC[C@@H]1c1cc2cnc(NC(=O)c3ccc4c(C(F)F)nn(C)c4c3)cc2[nH]1` [Example 78, (R)-3-(difluoromethyl)-1-methyl-N-(2-(1-methylpyrrolidin-2-yl)-1H-pyrrolo[3,2-c]pyridin-6-yl)-1H-indazole-6-carboxamide], for which the IC50 in assay [1] came out at 14 nM. In addition, the EC50 in assay [2] (Homo sapiens, 288 h) was determined as 167 nM.
With `CN1CCC[C@@H]1c1cc2cnc(NC(=O)c3ccn4c(C(F)(F)F)ncc4c3)cc2[nH]1` [Example 35], in assay [1], the IC50 came to 114 nM. For the same compound, the EC50 in assay [2] (Homo sapiens, 288 h) came out at 269 nM.
In assay [1], `Cc1nn(C)c2ccc(C(=O)Nc3cc4[nH]c([C@H]5CCCCN5C)cc4cn3)cc12` [Example 87] registered an IC50 of 47 nM. Moreover, in assay [2] (Homo sapiens, 288 h), the EC50 stood at 172 nM.
On the same counts, the results for `COCCNc1nn(C)c2cc(C(=O)Nc3cc4[nH]c([C@H]5CCCN5C)cc4cn3)ccc12` [Example 51] are 100 nM and 1200 nM.
Turning to `CN1CCC[C@@H]1c1nc2cc(NC(=O)c3ccc4c(cnn4-c4ccncn4)c3)ccc2[nH]1` [Example 23], the IC50 in assay [1] was 277 nM.
Take `CN1CCC[C@@H]1c1cc2cnc(NC(=O)c3cc4c(cn3)cnn4C)cc2[nH]1` [Example 5, (R)-1-methyl-N-(2-(1-methylpyrrolidin-2-yl)-1H-pyrrolo[3,2-c]pyridin-6-yl)-1H-pyrazolo[4,3-c]pyridine-6-carboxamide]: the IC50 in assay [1] was 1240 nM. Compared with the last compound, the IC50 is about 4.5-fold higher.
`CN1CCC[C@@H]1c1cc2cnc(NC(=O)c3cnc4c(ccn4C)c3)cc2[nH]1` [Example 44] came in with an IC50 in assay [1] of 780 nM.
